Reference: patent publication EP4043466B1, “PRC2 INHIBITORS” (Mirati Therapeutics, Inc., priority 2018, dated 2019)
Like-named read-outs stand apart in the source and are kept apart here.

Biological target: purified human, His-tagged PRC2 complex (Homo sapiens, UniProt O75530+Q15910)
Test: Hot Spot HMT assay: inhibition of PRC2 enzymatic activity (transfer of tritiated methyl from SAM to core histone, filter binding)
Type: biochemical
Excerpt: The assay uses purified human, His-tagged PRC2 complex, including N-terminal His-tagged EZH2 enzyme, N-terminal Flag-tagged embryonic ectoderm development protein (EED), N-terminal His-tagged suppressor of zeste 12 (SUZ12), N-terminal His-tagged AEBP2, and N-terminal His-tagged RbAp48. In this assay, the transfer of the tritiated methyl group from radiolabeled S-adenosyl methionine (SAM) to purified core histone protein by EZH2 is quantitated after filtration to determine the activity of the core PRC2 complex in the presence and absence of compound.
The initial starting concentration for the serial dilutions of each compound was 1.0 µM. […] SAH (S-(5-adenosyl)-L-homocysteine) was used as a positive control for assay validation.
An aliquot of each serial dilution of test compound was added to deep 384 well plate using Acoustic Technology instrument (Echo 550, LabCyte) containing reaction buffer (50 mM Tris-HCl (pH 8.)), 0.01% Brij35, 1 mM EDTA, 1 mM DTT, 1 mM PMSF and 1% DMSO), 10 nM purified PRC2 complex and 0.05 mg/ml core histone H3 in a 5 µl volume. The reaction was mixed gently and then pre-incubated for 20 min at 30°C. The enzymatic reaction was initiated by adding 1 uM S-Adenosyl-L-[methyl - ^3H]methionine and incubated for 1 hr at 30°C. After 1 hr, the reaction product was detected using a filter binding method and the amount of tritiated H3 core histone was quantitated using a scintillation counter.

[1] = Inhibition of PRC2-mediated enzymatic activity, 10 nM PRC2 complex, 0.05 mg/ml core histone H3, 1 uM 3H-SAM, 1 hr at 30°C

purified human, His-tagged PRC2 complex, sequence (Q15910 whole entry): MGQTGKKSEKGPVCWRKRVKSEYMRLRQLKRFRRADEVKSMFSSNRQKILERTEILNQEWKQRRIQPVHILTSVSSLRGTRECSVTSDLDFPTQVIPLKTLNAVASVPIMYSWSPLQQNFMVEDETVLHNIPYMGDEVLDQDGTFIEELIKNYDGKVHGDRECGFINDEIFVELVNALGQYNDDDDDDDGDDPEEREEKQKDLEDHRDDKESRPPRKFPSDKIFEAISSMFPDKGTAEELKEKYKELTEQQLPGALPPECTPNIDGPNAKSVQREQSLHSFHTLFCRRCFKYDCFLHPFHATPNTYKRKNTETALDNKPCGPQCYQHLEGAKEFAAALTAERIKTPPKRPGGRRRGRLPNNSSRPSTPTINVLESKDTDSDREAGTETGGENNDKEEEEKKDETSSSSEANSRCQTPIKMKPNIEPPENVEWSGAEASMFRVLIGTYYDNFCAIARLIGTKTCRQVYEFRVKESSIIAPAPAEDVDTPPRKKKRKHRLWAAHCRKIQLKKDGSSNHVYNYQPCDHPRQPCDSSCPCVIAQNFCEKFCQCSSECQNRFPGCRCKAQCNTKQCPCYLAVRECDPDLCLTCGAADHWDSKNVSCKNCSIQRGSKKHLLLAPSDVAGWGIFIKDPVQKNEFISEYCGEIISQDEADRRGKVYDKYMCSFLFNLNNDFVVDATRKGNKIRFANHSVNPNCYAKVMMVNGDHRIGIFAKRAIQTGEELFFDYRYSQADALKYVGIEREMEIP
purified human, His-tagged PRC2 complex, sequence (O75530 whole entry): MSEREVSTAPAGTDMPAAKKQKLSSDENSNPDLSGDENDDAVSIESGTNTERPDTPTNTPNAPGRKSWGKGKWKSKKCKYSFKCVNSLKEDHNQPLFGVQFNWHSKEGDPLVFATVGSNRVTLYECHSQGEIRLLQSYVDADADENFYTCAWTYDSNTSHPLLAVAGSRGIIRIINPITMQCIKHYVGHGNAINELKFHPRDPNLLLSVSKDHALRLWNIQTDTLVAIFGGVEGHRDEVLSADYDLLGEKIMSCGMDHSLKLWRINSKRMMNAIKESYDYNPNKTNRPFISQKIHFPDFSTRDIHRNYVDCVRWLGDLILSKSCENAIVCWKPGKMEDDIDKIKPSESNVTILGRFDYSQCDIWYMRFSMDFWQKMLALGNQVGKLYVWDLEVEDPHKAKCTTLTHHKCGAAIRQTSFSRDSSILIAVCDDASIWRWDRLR
purified human, His-tagged PRC2 complex, sequence (Q15022 whole entry partner): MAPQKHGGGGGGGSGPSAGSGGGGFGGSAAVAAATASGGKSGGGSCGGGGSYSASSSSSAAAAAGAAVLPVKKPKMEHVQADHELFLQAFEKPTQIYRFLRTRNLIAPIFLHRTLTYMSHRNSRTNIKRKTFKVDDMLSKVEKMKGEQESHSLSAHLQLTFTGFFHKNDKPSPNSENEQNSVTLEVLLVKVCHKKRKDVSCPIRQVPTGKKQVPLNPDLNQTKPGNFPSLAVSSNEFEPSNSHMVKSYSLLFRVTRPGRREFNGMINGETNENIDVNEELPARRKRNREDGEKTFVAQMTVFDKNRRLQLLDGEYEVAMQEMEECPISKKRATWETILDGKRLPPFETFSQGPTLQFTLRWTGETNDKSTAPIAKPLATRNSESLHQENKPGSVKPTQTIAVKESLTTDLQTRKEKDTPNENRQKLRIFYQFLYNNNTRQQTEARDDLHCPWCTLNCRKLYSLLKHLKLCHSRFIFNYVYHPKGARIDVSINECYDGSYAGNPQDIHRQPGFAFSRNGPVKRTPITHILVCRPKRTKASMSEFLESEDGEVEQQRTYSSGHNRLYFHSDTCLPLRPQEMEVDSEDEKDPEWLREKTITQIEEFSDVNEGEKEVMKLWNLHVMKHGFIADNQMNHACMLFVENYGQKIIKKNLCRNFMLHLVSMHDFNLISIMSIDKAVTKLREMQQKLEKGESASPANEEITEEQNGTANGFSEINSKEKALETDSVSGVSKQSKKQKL
purified human, His-tagged PRC2 complex, sequence (Q6ZN18 whole entry partner): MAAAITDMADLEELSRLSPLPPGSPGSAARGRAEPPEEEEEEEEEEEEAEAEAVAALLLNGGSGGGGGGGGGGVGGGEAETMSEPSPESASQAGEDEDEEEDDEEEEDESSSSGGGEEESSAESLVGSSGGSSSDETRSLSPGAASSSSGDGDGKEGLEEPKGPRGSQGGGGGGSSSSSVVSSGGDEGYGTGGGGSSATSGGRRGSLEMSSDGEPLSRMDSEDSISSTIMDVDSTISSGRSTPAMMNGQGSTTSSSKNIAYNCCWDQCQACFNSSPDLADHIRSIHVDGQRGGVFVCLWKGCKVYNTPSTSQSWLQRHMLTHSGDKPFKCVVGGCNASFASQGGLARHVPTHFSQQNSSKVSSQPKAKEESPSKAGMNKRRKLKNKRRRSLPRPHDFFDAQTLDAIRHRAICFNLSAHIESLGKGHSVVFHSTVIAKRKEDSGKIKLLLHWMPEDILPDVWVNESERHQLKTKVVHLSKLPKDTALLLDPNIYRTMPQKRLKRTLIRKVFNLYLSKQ
purified human, His-tagged PRC2 complex, sequence (Q09028 whole entry partner): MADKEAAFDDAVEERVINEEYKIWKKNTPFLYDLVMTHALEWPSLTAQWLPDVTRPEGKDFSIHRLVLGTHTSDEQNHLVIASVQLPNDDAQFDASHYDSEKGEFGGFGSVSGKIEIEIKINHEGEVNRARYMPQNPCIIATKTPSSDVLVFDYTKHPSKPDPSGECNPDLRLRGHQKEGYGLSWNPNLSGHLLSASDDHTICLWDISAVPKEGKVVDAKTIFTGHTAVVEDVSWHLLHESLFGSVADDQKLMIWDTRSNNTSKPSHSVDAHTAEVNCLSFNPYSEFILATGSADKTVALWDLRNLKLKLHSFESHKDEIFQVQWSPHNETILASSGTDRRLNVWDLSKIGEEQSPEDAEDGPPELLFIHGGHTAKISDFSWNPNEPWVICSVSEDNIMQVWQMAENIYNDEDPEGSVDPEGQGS

IC50 [1] [nM] | Molecule | IC50 [nM]
100 to 500 | N#Cc1cn2c(NCc3c(F)ccc4c3CCO4)ncc(-c3cnc(N)c(C(F)(F)F)c3)c2n1 [Example 134, 8-(6-amino-5-(trifluoromethyl)pyridin-3-yl)-5-(((5-fluoro-2,3-dihydrobenzofuran-4-yl)methyl)amino)imidazo[1,2-c]pyrimidine-2-carbonitrile] | 
100 to 500 | N#Cc1cn2c(NCc3c(F)ccc4c3CCO4)ncc(-c3cnn(Cc4cccnc4)c3)c2n1 [Example 101, 5-(((5-fluoro-2,3-dihydrobenzofuran-4-yl)methyl)amino)-8-(1-(pyridin-3-ylmethyl)-1H-pyrazol-4-yl)imidazo[1,2-c]pyrimidine-2-carbonitrile] | 
> 500 | N#Cc1cn2c(NCc3c(F)ccc4c3CCO4)ncc(-c3cnn(C4CCOCC4)c3)c2n1 [Example 120, 5-(((5-fluoro-2,3-dihydrobenzofuran-4-yl)methyl)amino)-8-(1-(tetrahydro-2H-pyran-4-yl)-1H-pyrazol-4-yl)imidazo[1,2-c]pyrimidine-2-carbonitrile] | 
< 100 | N#Cc1cn2c(NCc3c(F)ccc4c3CCO4)ncc(-c3cnccc3Cl)c2n1 [Example 109, 8-(4-chloropyridin-3-yl)-5-(((5-fluoro-2,3-dihydrobenzofuran-4-yl)methyl)amino)imidazo[1,2-c]pyrimidine-2-carbonitrile] | 
100 to 500 | N#Cc1cn2c(NCc3c(F)ccc4c3CCO4)ncc(-c3ccc(C(F)(F)F)nc3)c2n1 [Example 126, 5-(((5-fluoro-2,3-dihydrobenzofuran-4-yl)methyl)amino)-8-(6-(trifluoromethyl)pyridin-3-yl)imidazo[1,2-c]pyrimidine-2-carbonitrile] | 
< 100 | CN(C)Cc1ncc(-c2cnc(NCc3c(F)ccc4c3CCO4)n3cc(C#N)nc23)cn1 [Example 216, 8-(2-((dimethylamino)methyl)pyrimidin-5-yl)-5-(((5-fluoro-2,3-dihydrobenzofuran-4-yl)methyl)amino)imidazo[1,2-c]pyrimidine-2-carbonitrile] | 
> 500 | Cc1n[nH]c(C)c1-c1cnc(NCc2c(F)ccc3c2CCO3)n2cc(C#N)nc12 [Example 104, 8-(3,5-dimethyl-1H-pyrazol-4-yl)-5-(((5-fluoro-2,3-dihydrobenzofuran-4-yl)methyl)amino)imidazo[1,2-c]pyrimidine-2-carbonitrile] | 
< 100 | CC(=O)Nc1cc(-c2cnc(NCc3c(F)ccc4c3CCO4)n3cc(C#N)nc23)ccn1 [Example 131, N-(4-(2-cyano-5-(((5-fluoro-2,3-dihydrobenzofuran-4-yl)methyl)amino)imidazo[1,2-c]pyrimidin-8-yl)pyridin-2-yl)acetamide] | 
100 to 500 | N#Cc1cn2c(NCc3c(F)ccc4c3CCO4)ncc(-c3n[nH]cc3Br)c2n1 [Example 232, 8-(4-bromo-1H-pyrazol-3-yl)-5-(((5-fluoro-2,3-dihydrobenzofuran-4-yl)methyl)amino)imidazo[1,2-c]pyrimidine-2-carbonitrile] | 
< 100 | COc1cc(-c2cnc(NCc3c(F)ccc4c3CCO4)n3cc(C#N)nc23)c(OC)cn1 [Example 125, 8-(2,5-dimethoxypyridin-4-yl)-5-(((5-fluoro-2,3-dihydrobenzofuran-4-yl)methyl)amino)imidazo[1,2-c]pyrimidine-2-carbonitrile] | 
100 to 500 | CN(C)CCCn1cc(-c2cnc(NCc3c(F)ccc4c3CCO4)n3cc(C#N)nc23)cn1 [Example 103, 8-(1-(3-(dimethylamino)propyl)-1H-pyrazol-4-yl)-5-(((5-fluoro-2,3-dihydrobenzofuran-4-yl)methyl)amino)imidazo[1,2-c]pyrimidine-2-carbonitrile] | 
< 100 | N#Cc1cn2c(NCc3c(F)ccc4c3CCO4)ncc(-c3ccc(N4CCCCC4)nc3)c2n1 [Example 135, 5-(((5-fluoro-2,3-dihydrobenzofuran-4-yl)methyl)amino)-8-(6-(piperidin-1-yl)pyridin-3-yl)imidazo[1,2-c]pyrimidine-2-carbonitrile] | 
100 to 500 | N#Cc1cn2c(NCc3c(F)ccc4c3CCO4)ncc(-c3ccnn3CCO)c2n1 [Example 231, 5-(((5-fluoro-2,3-dihydrobenzofuran-4-yl)methyl)amino)-8-(1-(2-hydroxyethyl)-1H-pyrazol-5-yl)imidazo[1,2-c]pyrimidine-2-carbonitrile] | 
< 100 | Cc1cc(-c2cnc(NCc3c(F)ccc4c3C(O)CO4)n3cc(C#N)nc23)n(C)n1 (stereo not shown) [Example 155, 8-(1,3-dimethyl-1H-pyrazol-5-yl)-5-(((5-fluoro-3-hydroxy-2,3-dihydrobenzofuran-4-yl)methyl)amino)imidazo[1,2-c]pyrimidine-2-carbonitrile] | 
< 100 | N#Cc1cn2c(NCc3c(F)ccc4c3CCO4)ncc(-c3ccc(CN4CCC(O)C4)cc3)c2n1 (stereo not shown) [Example 151, 5-(((5-fluoro-2,3-dihydrobenzofuran-4-yl)methyl)amino)-8-(4-((3-hydroxypyrrolidin-1-yl)methyl)phenyl)imidazo[1,2-c]pyrimidine-2-carbonitrile] | 

Continued, molecule first:

Molecule | IC50 [1] [nM] | IC50 [nM]
CC(C)n1cc(-c2cnc(NCc3c(F)ccc4c3CCO4)n3cc(C#N)nc23)cn1 [Example 99, 5-(((5-fluoro-2,3-dihydrobenzofuran-4-yl)methyl)amino)-8-(1-isopropyl-1H-pyrazol-4-yl)imidazo[1,2-c]pyrimidine-2-carbonitrile] | < 100 | 
5-(((5-fluoro-2,3-dihydrobenzofuran-4-yl)methyl)amino)-8-(4-methyl-1H-imidazol-1-yl)imidazo[1,2-c]pyrimidine-2-carboxamide [Example 17] | 100 to 500 | 
CN(C)Cc1cc(-c2cnc(NCc3c(F)ccc4c3CCO4)n3cc(C#N)nc23)n(C)n1 [Example 210, 8-(3-((dimethylamino)methyl)-1-methyl-1H-pyrazol-5-yl)-5-(((5-fluoro-2,3-dihydrobenzofuran-4-yl)methyl)amino)imidazo[1,2-c]pyrimidine-2-carbonitrile] |  | < 100
Cc1n[nH]cc1-c1cnc(NCc2c(F)ccc3c2CCO3)n2cc(C#N)nc12 [Example 79, 5-(((5-fluoro-2,3-dihydrobenzofuran-4-yl)methyl)amino)-8-(3-methyl-1H-pyrazol-4-yl)imidazo[1,2-c]pyrimidine-2-carbonitrile] | < 100 | 
Cc1ncccc1-c1cnc(NCc2c(F)ccc3occc23)n2cc(C#N)nc12 [Example 22, 5-(((5-fluorobenzofuran-4-yl)methyl)amino)-8-(2-methylpyridin-3-yl)imidazo[1,2-c]pyrimidine-2-carbonitrile] | 100 to 500 | 
COc1ccc(-c2cnc(NCc3c(F)ccc4c3CCO4)n3cc(C#N)nc23)cn1 [Example 94, 5-(((5-fluoro-2,3-dihydrobenzofuran-4-yl)methyl)amino)-8-(6-methoxypyridin-3-yl)imidazo[1,2-c]pyrimidine-2-carbonitrile] | < 100 | 
Cc1nn(C(C)C)c(C)c1-c1cnc(NCc2c(F)ccc3c2CCO3)n2cc(C#N)nc12 [Example 92, 5-(((5-fluoro-2,3-dihydrobenzofuran-4-yl)methyl)amino)-8-(1-isopropyl-3,5-dlmethyl-1H-pyrazol-4-yl)imidazo[1,2-c]pyrimidine-2-carbonitrile] | 100 to 500 | 
Cc1cn(-c2cnc(NCc3c(F)ccc4c3CCO4)n3cc(C(=O)O)nc23)cn1 [Example 4, 5-(((5-fluoro-2,3-dihydrobenzofuran-4-yl)methyl)amino)-8-(4-methyl-1H-imidazol-1-yl)imidazo[1,2-c]pyrimidine-2-carboxylic acid] | < 100 | 
COc1cc(C)c(-c2cnc(NCc3c(F)ccc4c3CCO4)n3cc(C(=O)O)nc23)cn1 [Example 6, 5-(((5-fluoro-2,3-dihydrobenzofuran-4-yl)methyl)amino)-8-(6-methoxy-4-methylpyridin-3-yl)imidazo[1,2-c]pyrimidine-2-carboxylic acid] | 100 to 500 | 
CNCc1cc(-c2cnc(NCc3c(F)ccc4c3CCO4)n3cc(C#N)nc23)n(C)n1 [Example 211, 5-(((5-fluoro-2,3-dihydrobenzofuran-4-yl)methyl)amino)-8-(1-methyl-3-((methylamino)methyl)-1H-pyrazol-5-yl)imidazo[1,2-c]pyrimidine-2-carbonitrile] |  | < 100
N#Cc1cn2c(NCc3c(F)ccc4c3CCO4)ncc(-c3ccc(CN4CCC(F)(F)C4)cc3)c2n1 [Example 55, 8-(4-((3,3-difluoropyrrolidin-1-yl)methyl)phenyl)-5-(((5-fluoro-2,3-dihydrobenzofuran-4-yl)methyl)amino)imidazo[1,2-c]pyrimidine-2-carbonitrile] | < 100 | 
N#Cc1cn2c(NCc3c(F)ccc4c3CCO4)ncc(C3CCOCC3)c2n1 [Example 141, 5-(((5-fluoro-2,3-dihydrobenzofuran-4-yl)methyl)amino)-8-(tetrahydro-2H-pyran-4-yl)imidazo[1,2-c]pyrimidine-2-carbonitrile] | > 500 | 
COc1cc(C)c(-c2cnc(NCc3c(F)ccc4c3CCO4)n3cc(C(N)=O)nc23)cn1 [Example 14, 5-(((5-fluoro-2,3-dihydrobenzofuran-4-yl)methyl)amino)-8-(6-methoxy-4-methylpyridin-3-yl)imidazo[1,2-c]pyrimidine-2-carboxamide] | 100 to 500 | 
